# From patent publication US20170197979A1, “BENZOTHIADIAZOLAMINES” (BAYER PHARMA AKTIENGESELLSCHAFT, priority 2014, published 2017)
# Target: T1, human full-length MKNK1 (Homo sapiens, UniProt Q9BUB5, T385D)
# T1 construct: GST (N); purchased Carna Biosciences 02-145; host or cells: insect cells (baculovirus expression system)
# Experiment: MKNK1 kinase high ATP assay (TR-FRET)
# Format: biochemical
# Settings: not given
# Method: MKNK1 Kinase High ATP Assay
# MKNK1-inhibitory activity at high ATP of compounds of the present invention after their preincubation with MKNK1 was quantified employing the TR-FRET-based MKNK1 high ATP assay as described in the following paragraphs.
# A recombinant fusion protein of Glutathione-S-Transferase (GST, N-terminally) and human full-length MKNK1 (amino acids 1-424 and T344D of accession number BAA 19885.1), expressed in insect cells using baculovirus expression system and purified via glutathione sepharose affinity chromatography, was purchased from Carna Biosciences (product no 02-145) and used as enzyme. As substrate for the kinase reaction the biotinylated peptide biotin-Ahx-IKKRKLTRRKSLKG (C-terminus in amide form) was used, which can be purchased e.g. from the company Biosyntan (Berlin-Buch, Germany).
# For the assay 50 nL of a 100 fold concentrated solution of the test compound in DMSO was pipetted into a black low volume 384 well microtiter plate (Greiner Bio-One, Frickenhausen, Germany), 2 μL of a solution of MKNK1 in aqueous assay buffer [50 mM HEPES pH 7.5, 5 mM MgCl2, 1.0 mM dithiothreitol, 0.005% (v/v) Nonidet-P40 (Sigma)] was added and the mixture was incubated for 15 min at 22° C. to allow pre-binding of the test compounds to the enzyme before the start of the kinase reaction. Then the kinase reaction was started by the addition of 3 μL of a solution of adenosine-tri-phosphate (ATP, 3.3 mM=>final conc. in the 5 μL assay volume is 2 mM) and substrate (0.1 μM=>final conc. in the 5 μL assay volume is 0.06 μM) in assay buffer and the resulting mixture was incubated for a reaction time of 30 min at 22° C. The concentration of MKNK1 was adjusted depending of the activity of the enzyme lot and was chosen appropriate to have the assay in the linear range, typical concentrations were in the range of 0.003 μg/mL. The reaction was stopped by the addition of 5 μL of a solution of TR-FRET detection reagents (5 nM streptavidine-XL665 [Cisbio Bioassays, Codolet, France] and 1 nM anti-ribosomal protein S6 (pSer236)-antibody from Invitrogen [#44921G] and 1 nM LANCE EU-W1024 labeled ProteinG [Perkin-Elmer, product no. AD0071]) in an aqueous EDTA-solution (100 mM EDTA, 0.1% (w/v) bovine serum albumin in 50 mM HEPES pH 7.5).
# The resulting mixture was incubated for 1 h at 22° C. to allow the formation of complex between the phosphorylated biotinylated peptide and the detection reagents. Subsequently the amount of phosphorylated substrate was evaluated by measurement of the resonance energy transfer from the Eu-chelate to the streptavidine-XL. Therefore, the fluorescence emissions at 620 nm and 665 nm after excitation at 350 nm were measured in a TR-FRET reader, e.g. a Rubystar (BMG Labtechnologies, Offenburg, Germany) or a Viewlux (Perkin-Elmer). The ratio of the emissions at 665 nm and at […] was taken as the measure for the amount of phosphorylated substrate. The data were normalised (enzyme reaction without inhibitor=0% inhibition, all other assay components but no enzyme=100% inhibition).
# T1 sequence (Q9BUB5 1-424 isoform Q9BUB5-2 T344D): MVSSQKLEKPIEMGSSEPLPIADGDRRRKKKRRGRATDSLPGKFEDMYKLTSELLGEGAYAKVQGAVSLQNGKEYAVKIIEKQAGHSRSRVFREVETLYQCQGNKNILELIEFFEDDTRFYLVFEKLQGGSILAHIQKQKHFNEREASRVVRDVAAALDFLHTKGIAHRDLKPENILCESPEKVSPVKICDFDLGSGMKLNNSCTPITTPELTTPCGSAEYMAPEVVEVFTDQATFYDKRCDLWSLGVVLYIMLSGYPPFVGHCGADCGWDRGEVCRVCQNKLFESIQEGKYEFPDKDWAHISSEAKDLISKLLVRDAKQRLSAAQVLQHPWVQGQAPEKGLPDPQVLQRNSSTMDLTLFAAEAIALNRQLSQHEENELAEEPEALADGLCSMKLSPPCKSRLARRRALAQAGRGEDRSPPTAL
row,SMILES,IC50 [nM]
1,"O=C1CCN(C(=O)[C@H]2CCc3c(sc4ncnc(Nc5ccc6nnsc6c5)c34)C2)CC1 [Example 16, 1-{[(7S)-4-(1,2,3-Benzothiadiazol-6-ylamino)-5,6,7,8-tetrahydro[1]benzothieno[2,3-d]pyrimidin-7-yl]carbonyl}piperidin-4-one]",15

# Same assay, conditions: TR-FRET, high ATP (2 mM final), 15 min preincubation with enzyme, GST-MKNK1 (T344D); read-out: MKNK1 IC50
row,SMILES,IC50 [nM]
1,"CN(C)C(=O)[C@H]1CCc2c(sc3ncnc(Nc4ccc5nnsc5c4)c23)C1 [Example 1, (7S)-4-(1,2,3-Benzothiadiazol-6-ylamino)-N,N-dimethyl-5,6,7,8-tetrahydro[1]benzothieno[2,3-d]pyrimidine-7-carboxamide]",16
2,"COCCN(C)C(=O)[C@H]1CCc2c(sc3ncnc(Nc4ccc5nnsc5c4)c23)C1 [Example 2, (7S)-4-(1,2,3-Benzothiadiazol-6-ylamino)-N-(2-methoxyethyl)-N-methyl-5,6,7,8-tetrahydro[1]benzothieno[2,3-d]pyrimidine-7-carboxamide]",9.4
3,"C[C@@H]1CN(C(=O)[C@H]2CCc3c(sc4ncnc(Nc5ccc6nnsc6c5)c34)C2)C[C@H](C)O1 [Example 3, [(7S)-4-(1,2,3-Benzothiadiazol-6-ylamino)-5,6,7,8-tetrahydro[1]benzothieno[2,3-d]pyrimidin-7-yl][(2R,6S)-2,6-dimethylmorpholin-4-yl]methanone]",13
4,"C[C@@H]1COCCN1C(=O)[C@H]1CCc2c(sc3ncnc(Nc4ccc5nnsc5c4)c23)C1 [Example 4, [(7S)-4-(1,2,3-Benzothiadiazol-6-ylamino)-5,6,7,8-tetrahydro[1]benzothieno[2,3-d]pyrimidin-7-yl][(3R)-3-methylmorpholin-4-yl]methanone]",11
5,"C[C@H]1COCCN1C(=O)[C@H]1CCc2c(sc3ncnc(Nc4ccc5nnsc5c4)c23)C1 [Example 5, [(7S)-4-(1,2,3-Benzothiadiazol-6-ylamino)-5,6,7,8-tetrahydro[1]benzothieno[2,3-d]pyrimidin-7-yl][(3S)-3-methylmorpholin-4-yl]methanone]",12
6,"O=C([C@H]1CCc2c(sc3ncnc(Nc4ccc5nnsc5c4)c23)C1)N1CCOCC1 [Example 6, [(7S)-4-(1,2,3-Benzothiadiazol-6-ylamino)-5,6,7,8-tetrahydro[1]benzothieno[2,3-d]pyrimidin-7-yl](morpholin-4-yl)methanone]",18
7,"C[C@@H]1COC[C@H](C)N1C(=O)[C@H]1CCc2c(sc3ncnc(Nc4ccc5nnsc5c4)c23)C1 [Example 7, [(7S)-4-(1,2,3-Benzothiadiazol-6-ylamino)-5,6,7,8-tetrahydro[1]benzothieno[2,3-d]pyrimidin-7-yl][(3R,5S)-3,5-dimethylmorpholin-4-yl]methanone]",5.8
8,"C[C@@H]1CN(C(=O)[C@H]2CCc3c(sc4ncnc(Nc5ccc6nnsc6c5)c34)C2)C[C@@H](C)O1 [Example 8, [(7S)-4-(1,2,3-Benzothiadiazol-6-ylamino)-5,6,7,8-tetrahydro[1]benzothieno[2,3-d]pyrimidin-7-yl][(2R,6R)-2,6-dimethylmorpholin-4-yl]methanone]",6.4
9,"C[C@@H]1COC[C@@H](C)N1C(=O)[C@H]1CCc2c(sc3ncnc(Nc4ccc5nnsc5c4)c23)C1 [Example 9, [(7S)-4-(1,2,3-Benzothiadiazol-6-ylamino)-5,6,7,8-tetrahydro[1]benzothieno[2,3-d]pyrimidin-7-yl][(3R,5R)-3,5-dimethylmorpholin-4-yl]methanone]",5.4
10,"C[C@H]1CN(C(=O)[C@H]2CCc3c(sc4ncnc(Nc5ccc6nnsc6c5)c34)C2)C[C@H](C)O1 [Example 10, [(7S)-4-(1,2,3-Benzothiadiazol-6-ylamino)-5,6,7,8-tetrahydro[1]benzothieno[2,3-d]pyrimidin-7-yl][(2S,6S)-2,6-dimethylmorpholin-4-yl]methanone]",5
11,"CN(C(=O)[C@H]1CCc2c(sc3ncnc(Nc4ccc5nnsc5c4)c23)C1)S(C)(=O)=O [Example 11, (7S)-4-(1,2,3-Benzothiadiazol-6-ylamino)-N-methyl-N-(methylsulfonyl)-5,6,7,8-tetrahydro[1]benzothieno[2,3-d]pyrimidine-7-carboxamide]",12
12,"CN(C)CCN1CCN(C(=O)[C@H]2CCc3c(sc4ncnc(Nc5ccc6nnsc6c5)c34)C2)CC1 [Example 12, [(7S)-4-(1,2,3-Benzothiadiazol-6-ylamino)-5,6,7,8-tetrahydro[1]benzothieno[2,3-d]pyrimidin-7-yl]{4-[2-(dimethylamino)ethyl]piperazin-1-yl}methanone]",6.4
13,"CN(C)[C@H]1CCN(C(=O)[C@H]2CCc3c(sc4ncnc(Nc5ccc6nnsc6c5)c34)C2)C1 [Example 13, [(7S)-4-(1,2,3-Benzothiadiazol-6-ylamino)-5,6,7,8-tetrahydro[1]benzothieno[2,3-d]pyrimidin-7-yl][(3S)-3-(dimethylamino)pyrrolidin-1-yl]methanone]",6.1
14,"CN(C)C1CN(C(=O)[C@H]2CCc3c(sc4ncnc(Nc5ccc6nnsc6c5)c34)C2)C1 [Example 14, [(7S)-4-(1,2,3-Benzothiadiazol-6-ylamino)-5,6,7,8-tetrahydro[1]benzothieno[2,3-d]pyrimidin-7-yl][3-(dimethylamino)azetidin-1-yl]methanone]",26
15,"CN(C)C1CCN(C(=O)[C@H]2CCc3c(sc4ncnc(Nc5ccc6nnsc6c5)c34)C2)CC1 [Example 15, [(7S)-4-(1,2,3-Benzothiadiazol-6-ylamino)-5,6,7,8-tetrahydro[1]benzothieno[2,3-d]pyrimidin-7-yl][4-(dimethylamino)piperidin-1-yl]methanone]",10
16,"O=C([C@H]1CCc2c(sc3ncnc(Nc4ccc5nnsc5c4)c23)C1)N1CCC(F)(F)C1 [Example 17, [(7S)-4-(1,2,3-Benzothiadiazol-6-ylamino)-5,6,7,8-tetrahydro[1]benzothieno[2,3-d]pyrimidin-7-yl](3,3-difluoropyrrolidin-1-yl)methanone]",11
17,"O=C([C@H]1CCc2c(sc3ncnc(Nc4ccc5nnsc5c4)c23)C1)N1C[C@@H]2C[C@H]1CO2 [Example 18, [(7S)-4-(1,2,3-Benzothiadiazol-6-ylamino)-5,6,7,8-tetrahydro[1]benzothieno[2,3-d]pyrimidin-7-yl][(1S,4S)-2-oxa-5-azabicyclo[2.2.1]hept-5-yl]methanone]",14
18,"CN1C[C@@H]2C[C@H]1CN2C(=O)[C@H]1CCc2c(sc3ncnc(Nc4ccc5nnsc5c4)c23)C1 [Example 19, [(7S)-4-(1,2,3-Benzothiadiazol-6-ylamino)-5,6,7,8-tetrahydro[1]benzothieno[2,3-d]pyrimidin-7-yl][(1S,4S)-5-methyl-2,5-diazabicyclo[2.2.1]hept-2-yl]methanone]",20
19,"O=C([C@H]1CCc2c(sc3ncnc(Nc4ccc5nnsc5c4)c23)C1)N1CC2(COC2)C1 [Example 20, [(7S)-4-(1,2,3-Benzothiadiazol-6-ylamino)-5,6,7,8-tetrahydro[1]benzothieno[2,3-d]pyrimidin-7-yl](2-oxa-6-azaspiro[3.3]hept-6-yl)methanone]",16
20,"CN(C)CCN(C)C1CCN(C(=O)[C@H]2CCc3c(sc4ncnc(Nc5ccc6nnsc6c5)c34)C2)CC1 [Example 21, [(7S)-4-(1,2,3-Benzothiadiazol-6-ylamino)-5,6,7,8-tetrahydro[1]benzothieno[2,3-d]pyrimidin-7-yl](4-{[2-(dimethylamino)ethyl](methyl)amino}piperidin-1-yl)methanone]",1.3
21,"CN(CCNC(=O)OC(C)(C)C)C(=O)[C@H]1CCc2c(sc3ncnc(Nc4ccc5nnsc5c4)c23)C1 [Example 22, tert-Butyl {2-[{[(7S)-4-(1,2,3-benzothiadiazol-6-ylamino)-5,6,7,8-tetrahydro[1]benzothieno[2,3-d]pyrimidin-7-yl]carbonyl}(methyl)amino]ethyl}carbamate]",14
